row,Structure (SMILES),logP
1,CC(Cl)CCC(Cl)C(Cl)CCC(Cl)CCl (configuration not stated),4.19
2,ClCC(Cl)CCC(Cl)C(Cl)CCC(Cl)CC(Cl)(Cl)Cl (configuration not stated),5.4
3,ClCC(Cl)CCC(Cl)C(Cl)(Cl)CCC(Cl)CCl (configuration not stated),4.2
4,ClCC(Cl)CCC(Cl)C(Cl)CCC(Cl)CCl (configuration not stated),4.02
5,CC(Cl)CCC(Cl)C(Cl)CCC(C)Cl (configuration not stated),4.4
6,ClCC(Cl)CCCCCCC(Cl)CCl (configuration not stated),5.01
7,CCCCC(Cl)C(Cl)CCC(Cl)CCl (configuration not stated),4.93

# More lines, now with the values ahead:
row,logP,Structure (SMILES)
1,6.71,ClC(CCCCC(Cl)CC(Cl)(Cl)Cl)CC(Cl)(Cl)Cl (configuration not stated)
2,7.75,ClC(CCCCCCC(Cl)CC(Cl)(Cl)Cl)CC(Cl)(Cl)Cl (configuration not stated)
3,6.72,ClC(CCC(Cl)C(Cl)CCC(Cl)CC(Cl)(Cl)Cl)CC(Cl)(Cl)Cl (configuration not stated)
4,6.42,ClCC(Cl)CCCCCCC(Cl)CC(Cl)(Cl)Cl (configuration not stated)
5,7.23,ClC(CCCCCC(Cl)CC(Cl)(Cl)Cl)CC(Cl)(Cl)Cl (configuration not stated)

# Source: the SangsterLogP compilation
